Source: ChEMBL document CHEMBL1127982, “Synthesis, chemical half-life and decomposition of new N3-(substituted) derivatives of CCNU” (Bioorg Med Chem Lett, 1994)

Experiment: Chemical half-life was determined
Conditions: not given; call rule not given here

| half-life [h] | Compound |
| --- | --- |
| 47.8 | CN(C(=O)N(CCCl)N=O)C1CCCCC1 |
| 69.8 | CCCN(C(=O)N(CCCl)N=O)C1CCCCC1 |
| 132 | CCN(C(=O)N(CCCl)N=O)C1CCCCC1 |
| 76.8 | C#CCN(C(=O)N(CCCl)N=O)C1CCCCC1 |
| 62.6 | O=NN(CCCl)C(=O)N(C1CCCCC1)C1CCCCC1 |
| 43.3 | CC(O)CN(C(=O)N(CCCl)N=O)C1CCCCC1 (centres undefined) |
| 32.9 | CC(C)N(C(=O)N(CCCl)N=O)C1CCCCC1 |

| Compound | half-life [h] |
| --- | --- |
| O=NN(CCCl)C(=O)NC1CCCCC1 [LOMUSTINE] | 2.1 |

Experiment: Chemical half-life was determined; not active
Type: ADME
Conditions: not given

| T1/2 | Compound |
| --- | --- |
| Not Active | CC(C)(C)N(C(=O)N(CCCl)N=O)C1CCCCC1 |

Experiment: HChemical half-life was determined, not active
Type: ADME
Conditions: not given

| T1/2 | Compound |
| --- | --- |
| Not Active | O=NN(CCCl)C(=O)N(CCCO)C1CCCCC1 |

Experiment: Partition coefficient (logD7.4)
Conditions: octanol/water, pH 7.4

| logD | Compound |
| --- | --- |
| 0.37 | CC(O)CN(C(=O)NCCCl)C1CCCCC1 (centres undefined) |
| 1.48 | C=CCN(C(=O)NCCCl)C1CCCCC1 |
| 2.36 | CC(C)N(C(=O)NCCCl)C1CCCCC1 |
| 1.93 | CC(C)CN(C(=O)NCCCl)C1CCCCC1 |
| 3.03 | CC(C)(C)N(C(=O)NCCCl)C1CCCCC1 |
| 2.46 | CC(C)(C)N(C(=O)N(CCCl)N=O)C1CCCCC1 |
| 1.41 | CN(C(=O)NCCCl)C1CCCCC1 |
| 1.78 | CC(C)N(C(=O)N(CCCl)N=O)C1CCCCC1 |

| Compound | logD |
| --- | --- |
| O=NN(CCCl)C(=O)NC1CCCCC1 [LOMUSTINE] | 2.83 |
